Assay results taken from patent publication US20050064050A1 (priority 1999, published 2005).

Legend:
[1] = molecular target: botulinum neurotoxin (BoNT/A) (Clostridium botulinum, UniProt P0DPI0); parameters: key to BoNT neutralization effects of tea-leaf extract ingredients: Effect: +: Effective in neutralization; −: Ineffective in neutralization
mouse = settings: in vivo, po

botulinum neurotoxin (BoNT/A), sequence (P0DPI0 whole entry, looked up): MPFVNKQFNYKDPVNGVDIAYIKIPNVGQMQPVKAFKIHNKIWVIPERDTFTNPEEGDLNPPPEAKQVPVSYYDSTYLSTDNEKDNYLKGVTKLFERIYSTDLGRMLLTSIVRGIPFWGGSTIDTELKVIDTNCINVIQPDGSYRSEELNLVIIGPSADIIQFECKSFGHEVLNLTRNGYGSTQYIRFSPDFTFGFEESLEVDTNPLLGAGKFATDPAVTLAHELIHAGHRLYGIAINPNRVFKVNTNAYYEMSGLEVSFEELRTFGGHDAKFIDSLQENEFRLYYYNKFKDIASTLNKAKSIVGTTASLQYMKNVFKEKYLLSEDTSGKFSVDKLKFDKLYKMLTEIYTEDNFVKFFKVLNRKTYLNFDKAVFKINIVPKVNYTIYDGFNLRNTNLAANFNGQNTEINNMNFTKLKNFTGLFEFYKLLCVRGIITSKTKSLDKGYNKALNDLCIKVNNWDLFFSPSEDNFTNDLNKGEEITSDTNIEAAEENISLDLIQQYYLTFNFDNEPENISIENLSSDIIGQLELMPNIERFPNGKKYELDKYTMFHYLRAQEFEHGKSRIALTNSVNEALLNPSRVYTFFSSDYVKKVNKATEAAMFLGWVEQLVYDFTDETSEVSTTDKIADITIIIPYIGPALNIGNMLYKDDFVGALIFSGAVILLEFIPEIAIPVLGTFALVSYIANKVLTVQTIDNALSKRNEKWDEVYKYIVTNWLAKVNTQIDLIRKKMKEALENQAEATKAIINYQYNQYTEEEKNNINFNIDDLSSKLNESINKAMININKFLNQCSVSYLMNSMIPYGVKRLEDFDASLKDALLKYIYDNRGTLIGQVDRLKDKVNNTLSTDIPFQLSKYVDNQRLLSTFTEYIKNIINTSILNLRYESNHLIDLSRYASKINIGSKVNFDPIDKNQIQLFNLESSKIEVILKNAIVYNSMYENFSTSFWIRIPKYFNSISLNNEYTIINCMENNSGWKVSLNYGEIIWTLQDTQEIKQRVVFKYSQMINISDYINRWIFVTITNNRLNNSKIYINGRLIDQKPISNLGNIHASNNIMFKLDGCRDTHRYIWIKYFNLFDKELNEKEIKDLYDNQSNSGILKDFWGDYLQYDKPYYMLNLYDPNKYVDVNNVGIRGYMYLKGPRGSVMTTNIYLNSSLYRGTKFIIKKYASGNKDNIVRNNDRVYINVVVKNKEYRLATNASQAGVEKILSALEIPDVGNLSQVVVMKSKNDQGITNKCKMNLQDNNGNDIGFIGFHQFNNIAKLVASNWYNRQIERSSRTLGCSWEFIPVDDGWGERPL

## O=C(OC[C@H]1O[C@@H](OC(=O)c2cc(O)c(O)c(OC(=O)c3cc(O)c(O)c(O)c3)c2)[C@H](OC(=O)c2cc(O)c(O)c(OC(=O)c3cc(O)c(O)c(O)c3)c2)[C@@H](OC(=O)c2cc(O)c(O)c(OC(=O)c3cc(O)c(O)c(O)c3)c2)[C@@H]1OC(=O)c1cc(O)c(O)c(OC(=O)c2cc(O)c(O)c(O)c2)c1)c1cc(O)c(O)c(OC(=O)c2cc(O)c(O)c(O)c2)c1 [Tannic Acid, tannic acid]
[1]
  BoNT neutralization effects of tea-leaf extract ingredients: Effect: −
  BoNT neutralizing effect (in words): showed no neutralizing effect

## O=c1c(O)cc([C@H]2Oc3cc(O)cc(O)c3C[C@H]2O)cc2c([C@H]3Oc4cc(O)cc(O)c4C[C@H]3O)cc(O)c(O)c12 [Theaflavin, theaflavin]
[1]
  BoNT neutralization effects of tea-leaf extract ingredients: Effect: −
  BoNT neutralizing effect (in words): showed no neutralizing effect

## catechin
[1]
  BoNT neutralization effects of tea-leaf extract ingredients: Effect: −
  BoNT neutralizing effect (in words): showed no neutralizing effect

## thearubigin
mouse
  toxicity (in words): no toxicity
